Values of other authors in US12419890B2, “Administration of sumo-activating enzyme inhibitor and checkpoint inhibitors” (Takeda Pharmaceutical Company Limited, priority 2019, dated 2025).
Read-outs that look alike come from different tables or passages of the source.

Key:
[1] = tested on: MSI-H CRC; conditions: MSI-H CRC patients that progressed to fluoropyrimidine, oxaliplatin, and irinotecan containing regimens; cited from earlier work
[2] = tested on: metastatic CRC; conditions: stated jointly for both drugs; cited from earlier work
[3] = tested on: recurrent or metastatic cervical cancer; conditions: cited from earlier work
[4] = tested on: advanced NSCLC; conditions: cited from earlier work
[5] = tested on: advanced cervical cancer, PD-L1 CPS>=1; conditions: cited from earlier work
[6] = 200 mg IV every three weeks, 77 patients

Compound: nivolumab
- ORR [1]: 28%
- responders whose DOR lasted more than six months [1]: 67%

Compound: trifluridine-tipiracil
- median OS [2]: 7 months
- median PFS [2]: 2 months

Compound: bevacizumab
- HR for PFS ([3]; bevacizumab added to standard first line chemotherapy vs chemotherapy alone, 95% CI 0.54-0.82): 0.67
- HR for OS ([3]; bevacizumab added to standard first line chemotherapy vs chemotherapy alone, 95% CI 0.54-0.95): 0.71
- median PFS ([3]; bevacizumab added to standard first line chemotherapy, vs 5.9 months chemotherapy alone): 8.2 months
- median OS ([3]; bevacizumab added to standard first line chemotherapy, vs 13.3 months chemotherapy alone): 17.0 months

Compound: CNC(=O)c1cc(Oc2ccc(NC(=O)Nc3ccc(Cl)c(C(F)(F)F)c3)c(F)c2)ccn1 [regorafenib]
- median OS [2]: 7 months
- median PFS [2]: 2 months

Compound: pembrolizumab
- 5-year OS rate ([4]; previously treated patients, PD-L1 expression 1 to 49%): 12.6%
- 5-year OS rate ([4]; previously treated patients, PD-L1 expression <1%): 3.5%
- 5-year OS rate ([4]; previously treated patients, PD-L1 expression >=50%): 25%
- 5-year OS rate ([4]; treatment-naive patients with PD-L1 expression >=50%): 29.6%
- 5-year OS rate ([4]; treatment-naive patients, PD-L1 <50%): 15.7%
- complete responses (CRs) [5, 6]: 2.6%
- partial responses (PRs) [5, 6]: 11.7%
- overall response rate (ORR) ([5]; 200 mg IV every three weeks, 77 patients, median follow-up 11.7 months, 95% CI 7.4, 24.1): 14.3%
- estimated median duration of response (DOR) ([5]; 11 patients with a response by independent review): not reached
- responders with a DOR of greater than or equal to 6 months ([5]; 11 patients with a response): 91%
- ORR [1]: 36%
- responders whose DOR lasted more than six months [1]: 78%
